In experiment [1] the test system is Kocuria rhizophila. As to the kind of experiment: Antibacterial activity against Kocuria rhizophila NBRC 12708 after 24 hrs by serial two fold dilution method. Format: functional. The note with it: NBRC 12708, 24 h.
Experiment [2] has as its system A549. As to the kind of experiment: Cytotoxicity against human A549 cells by MTT assay. Format: functional. The conditions noted are these: read-out: LC50 (the source's name). (Tetrazolium assays rely on reduction of a dye to a coloured formazan, in cell work by metabolically active cells.)
Experiment [3] deals with Bacillus spizizenii. As to the kind of experiment: Antibacterial activity against Bacillus subtilis ATCC 6633 after 24 hrs by serial two fold dilution method. The conditions noted are these: ATCC 6633, 24 h. Format: functional.
Experiment [4] concerns Salmonella typhimurium. As to the kind of experiment: Antibacterial activity against Salmonella enterica ATCC 14028 after 24 hrs by serial two fold dilution method. The conditions noted are these: ATCC 14028, 24 h. Format: functional, Salmonella enterica subsp. enterica serovar Typhimurium.
The subject of experiment [5] is K562. As to the kind of experiment: Cytotoxicity against human K562 cells by MTT assay. Format: functional. The note with it: read-out: LC50 (the source's name).
The nature of experiment [6]: Inhibition of Magnaporthe grisea Guy 11 ICL. Also on record: species or system Pyricularia grisea.
For experiment [7], the target named is Sodium/potassium-transporting ATPase. As to the kind of experiment: Inhibition of KCl-stimulated Na+/K+-ATPase in human placental membrane vesicles measured for 60 secs by 3-O-methylfluorescein phosphate dye based fluorometric method. Format: cell membranes, Placenta.
Experiment [8] addresses T1, Sortase A (Staphylococcus aureus, UniProt Q9S446).
T1 sequence (Q9S446 whole entry): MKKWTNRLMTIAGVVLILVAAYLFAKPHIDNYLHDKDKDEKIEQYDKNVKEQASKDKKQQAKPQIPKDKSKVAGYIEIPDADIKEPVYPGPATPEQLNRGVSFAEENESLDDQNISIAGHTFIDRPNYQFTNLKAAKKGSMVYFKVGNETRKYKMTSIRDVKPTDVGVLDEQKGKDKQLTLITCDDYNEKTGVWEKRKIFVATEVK
Kind of experiment: Inhibition of Staphylococcus aureus ATCC 6538p SortA expressed in Escherichia coli using Dabcyl-QALPETGEE-Edans as substrate after 1 hr by fluorescence spectrophotometric method.

Experiment [9] has as its system Proteus hauseri. As to the kind of experiment: Antibacterial activity against Proteus hauseri NBRC 3851 after 24 hrs by serial two fold dilution method. Format: functional. The note with it: NBRC 3851, 24 h.
Experiment [10] concerns Escherichia coli. As to the kind of experiment: Antibacterial activity against Escherichia coli ATCC 35270 after 24 hrs by serial two fold dilution method. Format: functional. The conditions noted are these: ATCC 35270, 24 h.
Experiment [11] concerns Staphylococcus aureus. As to the kind of experiment: Antibacterial activity against Staphylococcus aureus ATCC 6538p after 24 hrs by serial two fold dilution method. Format: functional.

Molecules are shown by their SMILES. ≈ marks a conversion by molar mass, not a printed value. A value given as a limit tells only on which side of the number the result lay.

Turning to `O[C@@H]1CC[C@@]23C[C@]45CN6CCCC/C=C\CC[C@](O)(C=C(c7nccc8c7[nH]c7ccccc78)[C@@H]4CC6)[C@@H]5N2CC[C@@H]1O[C@@]12CC[C@@H](O3)[C@@H](O)CCN1[C@@H]1[C@]3(CN4CCCC/C=C\CC[C@]1(O)C=C(c1nccc5c1[nH]c1ccccc15)[C@@H]3CC4)C2`, the MIC (usually the lowest concentration that inhibits growth of the organism) in [1] is 1.6 mg/L (≈ 1.38 µM); in experiment [3] it was 1.6 mg/L (≈ 1.38 µM); in experiment [4], 0.78 mg/L (≈ 0.672 µM); in [9] it was over 100 mg/L; in [10] it was over 100 mg/L; in experiment [11], over 100 mg/L. Besides, the CC50 in experiment [2] was determined as 13 µM; in [5] it was 12 µM. Further, the IC50 (as a rule, the concentration that gives 50% inhibition) in experiment [6] is 27 µM; in experiment [7], over 150 µM; in experiment [8], over 150 µM.
For the molecule `C1=C\CC[C@]23O[C@H]2[C@@H](c2nccc4c2[nH]c2ccccc24)[C@@H]2CCN(CCCC/1)C[C@@]21CCCCCCCCN[C@H]13`, the MIC in experiment [1] was 100 mg/L (≈ 181 µM); in experiment [3] it was 100 mg/L (≈ 181 µM); in experiment [4], 50 mg/L (≈ 90.4 µM); in [9], over 100 mg/L; in experiment [10], over 100 mg/L; in [11], over 100 mg/L. Besides, the CC50 in experiment [2] was found to be 6.5 µM; in experiment [5] it was 9.6 µM. Further, the IC50 in experiment [6], in [7] and in experiment [8] was over 150 µM throughout.
As to `Cl.[O-][n+]1ccc2c([nH]c3ccccc32)c1C1=C[C@@]2(O)CC/C=C\CCCCN3CC[C@@H]1[C@]1(CC/C=C\CCCCN[C@H]12)C3`, the MIC is over 100 mg/L in experiment [1]; over 100 mg/L in experiment [3]; 32 mg/L in experiment [4]; over 100 mg/L in experiment [9]; over 100 mg/L in experiment [10]; 32 mg/L in [11]. Also, the CC50 turned out to be 4.7 µM in [2] and 8.1 µM in experiment [5]. The IC50 in [6] is 26 µM; in experiment [7], over 150 µM; in experiment [8], 81 µM.
On to `O[C@H]1/C=C\[C@H]2C[C@]34CN5CCCC/C=C\CC[C@](O)(C=C(c6nccc7c6[nH]c6ccccc67)[C@@H]3CC5)[C@@H]4N2CCC1`, for which the MIC is 6.3 mg/L (≈ 11.2 µM) in experiment [1]; 6.3 mg/L (≈ 11.2 µM) in [3]; 1.6 mg/L (≈ 2.83 µM) in experiment [4]; 13 mg/L (≈ 23 µM) in experiment [9]; over 100 mg/L in experiment [10]; 25 mg/L (≈ 44.3 µM) in [11]. Further, the CC50 is 5.8 µM in experiment [2] and 7.2 µM in [5]. Moreover, the IC50 in experiment [6] was 140 µM; in [7] it was over 150 µM; in experiment [8], over 150 µM.
For `Cl.[O-][N+]1=C(C2=C[C@@]3(O)CC/C=C\CCCCN4CC[C@@H]2[C@]2(CC/C=C\CCCCN[C@H]23)C4)c2[nH]c3ccccc3c2CC1`, the MIC is 64 mg/L in [1]; 64 mg/L in [3]; over 100 mg/L in [4]; 32 mg/L in [9]; over 100 mg/L in [10]; 32 mg/L in experiment [11]. The CC50 in experiment [2] was found to be 5.7 µM; in [5], 9.5 µM. For the same molecule, the IC50 is over 150 µM in experiment [6], 110 µM in experiment [7] and over 150 µM in experiment [8].
Regarding `O[C@]12C=C(c3nccc4c3[nH]c3ccccc34)[C@@H]3CCN(CCCC/C=C\CC1)C[C@@]31C[C@@H]3C=C[C@H]4CCC[N@+]43[C@H]12.[Cl-]`, the minimum inhibitory concentration (MIC) in experiment [1] was found to be 16 mg/L; in experiment [3], 32 mg/L; in [4] it was 16 mg/L; in experiment [9], 8 mg/L; in [10], 64 mg/L; in [11], 8 mg/L. The CC50 in experiment [2] worked out at 4.6 µM; in experiment [5], 7.2 µM. Besides, the IC50 in experiment [6] and in experiment [7] was over 150 µM throughout.
Take `Cn1cncc1C(=O)c1nccc2c1[nH]c1ccccc12`: the MIC in experiment [1] is 25 mg/L (≈ 90.5 µM); in experiment [3] it was 50 mg/L (≈ 181 µM); in [4], 25 mg/L (≈ 90.5 µM); in experiment [9] it was over 100 mg/L; in [10], over 100 mg/L; in [11], over 100 mg/L. Also, the CC50 came to 12 µM in [2] and 13 µM in [5]. Moreover, the IC50 in experiment [6], in experiment [7] and in experiment [8] was over 150 µM throughout.
Take `Cn1cncc1C(=O)C1=NCCc2c1[nH]c1ccccc21`: the MIC in experiment [1] is 25 mg/L (≈ 89.8 µM); in experiment [3], 25 mg/L (≈ 89.8 µM); in experiment [4] it was 6.3 mg/L (≈ 22.6 µM); in experiment [9] it was 50 mg/L (≈ 180 µM); in [10], over 100 mg/L; in [11], 50 mg/L (≈ 180 µM). The figures for the CC50 in experiment [2] and in experiment [5] were 9.9 µM and 9.2 µM, respectively. Also, the IC50 in experiment [6] is 75 µM; in experiment [7], over 150 µM; in experiment [8], over 150 µM.
As for `O=C(O)CC[N+](=O)[O-]`, the IC50 in experiment [6] turned out to be 19 µM.
Regarding `O[C@@H]1CCCN2[C@@H](CC1)C[C@]13CN4CCCC/C=C\CC[C@](O)(C=C(c5nccc6c5[nH]c5ccccc56)[C@@H]1CC4)[C@H]23` [32,33-DIHYDRO-31-HYDROXYMANZAMINE A], the MIC was 13 mg/L (≈ 22.9 µM) in experiment [1]; 25 mg/L (≈ 44.1 µM) in experiment [3]; 1.6 mg/L (≈ 2.82 µM) in experiment [4]; 100 mg/L (≈ 176 µM) in experiment [9]; over 100 mg/L in experiment [10]; 50 mg/L (≈ 88.2 µM) in experiment [11]. Also, the CC50 in experiment [2] amounted to 8.2 µM; in [5], 8.4 µM. The results for the concentration for half-maximal inhibition (IC50) in [6], in experiment [7] and in experiment [8] were 68 µM, over 150 µM and over 150 µM, respectively.
On to `CC1(C)S[C@@H]2[C@H](NC(=O)[C@H](N)c3ccccc3)C(=O)N2[C@H]1C(=O)O` [AMPICILLIN], for which the MIC is 0.39 mg/L (≈ 1.12 µM) in [1]; 0.78 mg/L (≈ 2.23 µM) in experiment [3]; 0.39 mg/L (≈ 1.12 µM) in experiment [4]; 1.6 mg/L (≈ 4.58 µM) in experiment [9]; 6.3 mg/L (≈ 18 µM) in experiment [10]; 0.39 mg/L (≈ 1.12 µM) in experiment [11].
On to `COc1cccc2c1C(=O)c1c(O)c3c(c(O)c1C2=O)C[C@@](O)(C(=O)CO)C[C@@H]3O[C@H]1C[C@H](N)[C@H](O)[C@H](C)O1` [DOXORUBICIN], for which the CC50 in experiment [2] was 0.92 µM; in [5], 1.1 µM.
Consider `O[C@]12C=C(c3nccc4c3[nH]c3ccccc34)[C@@H]3CCN(CCCC/C=C\CC1)C[C@@]31C[C@@H]3/C=C\CCCCN3[C@H]12` [MANZAMINE A], for which the MIC in experiment [1] was 50 mg/L (≈ 91.1 µM); in experiment [3], 50 mg/L (≈ 91.1 µM); in [4], 3.1 mg/L (≈ 5.65 µM); in [9] it was over 100 mg/L; in [10] it was over 100 mg/L; in experiment [11], over 100 mg/L. The CC50 came out at 8.3 µM in experiment [2] and 11 µM in [5]. Further, the figures for the IC50 in experiment [6], in experiment [7] and in [8] were 140 µM, over 150 µM and over 150 µM, respectively.
